Source: patent US3982931A, “N,N-di-sec.butyl-benzamide herbicides” (priority 1967, dated 1976)

Tests used:
[1] = tested on: infesting gramineae; experiment: herbicidal action on infesting plants (general statements); type: in vivo; settings: in words
Text: (§1) It is understood that all the data given herein shall have no limiting character on the object of this invention.

[2] = tested on: useful plants; experiment: phytotoxic action on useful plants (general statements); type: in vivo, useful gramineae; settings: in words
Text: as §1

[3] = tested on: amaranthus retroflexus L.; experiment: herbicidal activity, soil treatment one day after sowing; type: in vivo
[4] = tested on: artemisia vulgaris L.; experiment: as above; type: in vivo
[5] = tested on: chenopodium album L.; experiment: as above; type: in vivo
[6] = tested on: echinocloa crus-galli R.S.; experiment: as above; type: in vivo
[7] = tested on: setaria glauca L.; experiment: as above; type: in vivo
[8] = tested on: vicia sativa L.; experiment: as above; type: in vivo
Procedure, shortened: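 Pre-emergence soil treatment one day after sowing; activity scored visually on a […] scale against untreated control, from slight difference (1) to no germination or total containment at emergence (4); intermediate activity recorded as both classes, preeminent value first.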

[9] = tested on: avena sativa (oats); experiment: activity on agrarian species, soil treatment one day after sowing; type: in vivo, Avena sativa L.; settings: in vivo
Text: (§2) The infesting species and the agrarian species have been indicated in Table 1 by letters, as follows:
(§3) Method of evaluation of the results (of tests):
(§4) 0 = no activity and no difference with respect to the control;
(§5) 1 slight differences with respect to the control;
(§6) 3 = considerable activity with damages that definitely impair the further development of most of the small plants; an activity degree already useful for practical purposes;
(§7) 4 = maximum of activity with lack of germination or total containment of the small plants in the emerging stage.
(§8) In the case of an intermediate activity between two classes of the scale, both values are recorded with the one which corresponds to the preeminent activity preceding.
(§9) TABLE 2 reports the activity data of other compounds that fall within the class which is the object of this invention.
(§10) TABLE 3 reports data on the herbicidal activity against infesting herbs, while TABLE 4 reports data concerning the activity on useful species of agricultural cultivations. These tables employ the criterion explained previously. The product was spread on the soil one day after sowing, in quantities of 1, 3, 6, 8, 10, 12 and 14 kg/ha.

[10] = tested on: beta vulgaris L. (sugar-beet); experiment: as above; type: in vivo; settings: in vivo
Text: as §2
H = beta vulgaris L. (sugar-beet)
as §3, §4, §5, §6, §7, §8, §9, §10

[11] = tested on: phaseolus vulgaris (bean); experiment: as above; type: in vivo, Phaseolus vulgaris L.; settings: in vivo
Text: as §2
I = phaseolus vulgaris (bean)
as §3, §4, §5, §6, §7, §8, §9, §10

[12] = tested on: pisum sativum L. (pea); experiment: as above; type: in vivo; settings: in vivo
Text: as §2
L = pisum sativum L. (pea)
as §3, §4, §5, §6, §7, §8, §9
TABLE 3 reports data on the herbicidal activity against infesting herbs, while TABLE 4 reports data concerning the activity on useful species of agricultural cultivations. These tables employ the criterion explained previously. […]

[13] = tested on: solanum Lycopersicum L.; experiment: as above; type: in vivo; settings: in vivo
Text: as §2
M = solanum Lycopersicum L.
as §3, §4, §5, §6, §7
In the case of an intermediate activity between two classes of the scale, both values are recorded with the one which corresponds to the preeminent activity preceding. […]

[14] = tested on: triticum vulgare L. (wheat); experiment: as above; type: in vivo; settings: in vivo
Text: as §2
N = triticum vulgare L. (wheat)
as §3, §4, §5, §6, §7, §8, §9, §10

[15] = tested on: zea mais L. (corn); experiment: as above; type: in vivo; settings: in vivo
Text: as §2, §3, §4, §5, §6, §7, §8, §9, §10

[16] = tested on: oryza sativa L. (rice); experiment: as above; type: in vivo; settings: in vivo
Text: as §2
P = oryza sativa L. (rice)
as §3, §4, §5, §6, §7, §8, §9, §10

| activity on G, 0-4 scale [9] | activity on H, 0-4 scale [10] | activity on I, 0-4 scale [11] | activity on L, 0-4 scale [12] | activity on M, 0-4 scale [13] | activity on N, 0-4 scale [14] | activity on O, 0-4 scale [15] | activity on P, 0-4 scale [16] | SMILES | activity on A, 0-4 scale ([3]; 2 kg/ha) | activity on B, 0-4 scale ([4]; 2 kg/ha) | activity on B, 0-4 scale ([4]; 6 kg/ha) | activity on C, 0-4 scale ([5]; 2 kg/ha) | activity on C, 0-4 scale ([5]; 6 kg/ha) | activity on D, 0-4 scale ([6]; 2 kg/ha) | activity on D, 0-4 scale ([6]; 6 kg/ha) | activity on E, 0-4 scale ([7]; 2 kg/ha) | activity on F, 0-4 scale ([8]; 2 kg/ha) | activity on F, 0-4 scale ([8]; 6 kg/ha) | other results |
| --- | --- | --- | --- | --- | --- | --- | --- | --- | --- | --- | --- | --- | --- | --- | --- | --- | --- | --- | --- |
| – | – | – | – | – | – | – | – | CCCN(CCC)C(=O)c1cc(Cl)cc(Cl)c1 [3,5-dichloro-N,N-di-n.propyl-benzamide] | – | – | – | – | – | – | – | – | – | – | herbicidal action [1]: very active; phytotoxic action on useful plants [2]: phytotoxic action of considerable intensity |
| 1 | 3-4 | 1 | 1 | 3-4 | 1 | 2 | 3 | CCN(CC)C(=O)c1ccc(Cl)c(Cl)c1 [PA61, 3,4-dichloro-N,N-diethyl-benzamide, reference compound] | 3 | 3 | 3-4 | 3 | 3 | 1 | 3 | 2 | 2-3 | 3 | activity on A, 0-4 scale ([3]; 6 kg/ha): 3-4 |
| 0 | 2 | 0 | 0 | 1 | 0 | 0 | 0 | CCC(C)N(C(=O)c1c(Cl)cccc1Cl)C(C)CC (stereo not shown) [PA227, 2,6-dichloro-N,N-di-sec.butyl-benzamide] | 1-2 | 0-1 | 2 | 1 | 3-4 | 2 | 4 | 2 | 0 | 0 | activity on A, 0-4 scale ([3]; 4 kg/ha): 3; activity on B, 0-4 scale ([4]; 4 kg/ha): 1-2; activity on C, 0-4 scale ([5]; 4 kg/ha): 2; activity on D, 0-4 scale ([6]; 4 kg/ha): 3; activity on E, 0-4 scale ([7]; 4 kg/ha): 3; activity on E, 0-4 scale ([7]; 6 kg/ha): 4; activity on F, 0-4 scale ([8]; 4 kg/ha): 0 |
